In article PMC12475274, “Harnessing indole scaffolds to identify small-molecule IRE1α inhibitors modulating XBP1 mRNA splicing” (Nature Communications, 2025):
“Also recorded” adds a separate entry of the source. Blank lines part the entries; values can stand above or below the molecule they belong to.

Columns and labels:
[1] = tested on: XBP1 mRNA splicing in HCT 116 cells; test: RT-qPCR of ER stress-induced XBP1 mRNA splicing, HCT 116; assay type: cell-based, human; conditions: HCT 116 cells
Method: (§1) A549 cells, HCT 116 cells, and HT-29 cells were collected and seeded in 6-well plates at a density of 5 × 10^5 cells per well and cultured overnight to attach, then treated with compound or DMSO for 2 h, then 0.5 μg/mL final concentration of tunicamycin (Tm, MP Biomedi, 0215002805) were added to induce the ER stress for 2 h. After treatment, total RNA was purified using an RNeasy mini kit (Qiagen, 74106). 500 ng of total RNA was used for reverse transcription using the High-Capacity cDNA Reverse Transcription Kits (Thermo Fisher, 4368814). cDNA was diluted 1: 5 using RNase-free water, and 1 μL CDNA was used for each qPCR reaction. The qPCR was performed using PowerUp™ SYBR™ Green Master Mix (Thermo Fisher, A25742) with 10 µL reaction volume using Bio-Rad CFX96 Real-Time PCR Detection System following the standard cycling mode (primer Tm ≥ 60 °C) on the manufacturer’s protocol. Data was analyzed using the 2^- ΔΔCt method. The primers used are listed in Supplementary Table S3. The inhibition % was calculated by using the equation: inhibition% = 100× (normalized Tm control - normalized of the sample)/(normalized Tm control - normalized DMSO control). Tm control: Cells treated with tunicamycin; DMSO control: Cells treated with DMSO only.

[2] = tested on: IRE1α transcription level in A549 cells; test: RT-qPCR of IRE1α transcription level, A549; assay type: cell-based, human; conditions: A549 cells
Method: as §1

[3] = target: T1, wild-type full-length IRE1α in A549 cell lysate (Homo sapiens, UniProt O75460); test: Thermal stability assay in A549 cell lysate; assay type: binding
T1 construct: endogenous in cells; host or cells: A549 cells
Method: A549 cells were harvested and seeded into 100 mm standard cell culture dishes at 80% confluency and cultured overnight. For the IA107 experiment, cells were gently washed with pre-cooled DPBS (Gibco,14190169) and lysed in RIPA buffer (Sigma, R0278) supplemented with phosphatase inhibitor (Roch, 4906845001) and 1× protease inhibitor cocktail (Sigma, P8340) for 30 min on ice. Cell lysates were centrifuged at 18,000 × g for 30 min at 4 °C and the supernatants were collected. The lysates were collected together and then aliquoted into 550 μL, the aliquots were incubated with different concentrations of IA107 with a final concentration of 0.1% DMSO for 30 min at room temperature. After the incubation, the sample was aliquoted into 10 PCR tubes, with 50 μL of lysate per tube and further heated at the indicated temperatures using a PCR cycler (25 °C for 1 min; indicated temperatures for 3 min; 16 °C, hold). After heating, the lysates were centrifuged at 18,000 × g for 30 min at 4 °C and the supernatants were collected and mixed with 4x protein loading buffer (Invitrogen, 2463559), heated at 95 °C for 10 min and separated by 4–20% MP stain-free gels (Bio-Rad, 4568095) then transferred to 0.45 μm PVDF membranes (Bio-Rad, 1704274) using the Trans-Blot Turbo Transfer System with the preprogrammed standard SD protocol (Bio-Rad). […]

EGFR (ErbB1) = EGFR (ErbB1) (Homo sapiens, UniProt P00533); test: Kinase profiling (SelectScreen), ZLYTE; assay type: biochemical
Method: (§2) Kinase profiling was conducted by the SelectScreen Kinase Profiling Services (Thermo Fisher), using Z′-LYTE, Adapta, or LanthaScreen Eu Kinase Binding Assay for different kinases. The kinome phylogenetic tree was generated using the KinMap web portal.

PHKG2 = PHKG2 (Homo sapiens, UniProt P15735); test: Kinase profiling (SelectScreen), ZLYTE; assay type: biochemical
Method: as §2

IKBKB (IKK beta) = IKBKB (IKK beta) (Homo sapiens, UniProt O14920); test: Kinase profiling (SelectScreen), ZLYTE; assay type: biochemical
Method: as §2

BTK = BTK (Homo sapiens, UniProt Q06187); test: Kinase profiling (SelectScreen), ZLYTE; assay type: biochemical
Method: as §2

PLK1 = PLK1 (Homo sapiens, UniProt P53350); test: Kinase profiling (SelectScreen), ZLYTE; assay type: biochemical
Method: as §2

PAK4 = PAK4 (Homo sapiens, UniProt O96013); test: Kinase profiling (SelectScreen), ZLYTE; assay type: biochemical
Method: as §2

LCK = LCK (Homo sapiens, UniProt P06239); test: Kinase profiling (SelectScreen), ZLYTE; assay type: biochemical
Method: as §2

AKT1 (PKB alpha) = AKT1 (PKB alpha) (Homo sapiens, UniProt P31749); test: Kinase profiling (SelectScreen), ZLYTE; assay type: biochemical
Method: as §2

PIM1 = PIM1 (Homo sapiens, UniProt P11309); test: Kinase profiling (SelectScreen), ZLYTE; assay type: biochemical
Method: as §2

EEF2K = EEF2K (Homo sapiens, UniProt O00418); test: Kinase profiling (SelectScreen), ZLYTE; assay type: biochemical
Method: as §2

PDGFRB (PDGFR beta) = PDGFRB (PDGFR beta) (Homo sapiens, UniProt P09619); test: Kinase profiling (SelectScreen), ZLYTE; assay type: biochemical
Method: as §2

PTK2 (FAK) = PTK2 (FAK) (Homo sapiens, UniProt Q05397); test: Kinase profiling (SelectScreen), ZLYTE; assay type: biochemical
Method: as §2

MARK2 = MARK2 (Homo sapiens, UniProt Q7KZI7); test: Kinase profiling (SelectScreen), ZLYTE; assay type: biochemical
Method: as §2

PRKD1 (PKC mu) = PRKD1 (PKC mu) (Homo sapiens, UniProt Q15139); test: Kinase profiling (SelectScreen), ZLYTE; assay type: biochemical
Method: as §2

PRKACA (PKA) = PRKACA (PKA) (Homo sapiens, UniProt P17612); test: Kinase profiling (SelectScreen), ZLYTE; assay type: biochemical
Method: as §2

INSR = INSR (Homo sapiens, UniProt P06213); test: Kinase profiling (SelectScreen), ZLYTE; assay type: biochemical
Method: as §2

CDK1/cyclin B = CDK1/cyclin B (Homo sapiens, UniProt P06493); test: Kinase profiling (SelectScreen), ZLYTE; assay type: biochemical
Method: as §2

GSG2 (Haspin) = GSG2 (Haspin) (Homo sapiens, UniProt Q8TF76); test: Kinase profiling (SelectScreen), Adapta; assay type: biochemical
Method: as §2

T1 sequence (O75460 19-977): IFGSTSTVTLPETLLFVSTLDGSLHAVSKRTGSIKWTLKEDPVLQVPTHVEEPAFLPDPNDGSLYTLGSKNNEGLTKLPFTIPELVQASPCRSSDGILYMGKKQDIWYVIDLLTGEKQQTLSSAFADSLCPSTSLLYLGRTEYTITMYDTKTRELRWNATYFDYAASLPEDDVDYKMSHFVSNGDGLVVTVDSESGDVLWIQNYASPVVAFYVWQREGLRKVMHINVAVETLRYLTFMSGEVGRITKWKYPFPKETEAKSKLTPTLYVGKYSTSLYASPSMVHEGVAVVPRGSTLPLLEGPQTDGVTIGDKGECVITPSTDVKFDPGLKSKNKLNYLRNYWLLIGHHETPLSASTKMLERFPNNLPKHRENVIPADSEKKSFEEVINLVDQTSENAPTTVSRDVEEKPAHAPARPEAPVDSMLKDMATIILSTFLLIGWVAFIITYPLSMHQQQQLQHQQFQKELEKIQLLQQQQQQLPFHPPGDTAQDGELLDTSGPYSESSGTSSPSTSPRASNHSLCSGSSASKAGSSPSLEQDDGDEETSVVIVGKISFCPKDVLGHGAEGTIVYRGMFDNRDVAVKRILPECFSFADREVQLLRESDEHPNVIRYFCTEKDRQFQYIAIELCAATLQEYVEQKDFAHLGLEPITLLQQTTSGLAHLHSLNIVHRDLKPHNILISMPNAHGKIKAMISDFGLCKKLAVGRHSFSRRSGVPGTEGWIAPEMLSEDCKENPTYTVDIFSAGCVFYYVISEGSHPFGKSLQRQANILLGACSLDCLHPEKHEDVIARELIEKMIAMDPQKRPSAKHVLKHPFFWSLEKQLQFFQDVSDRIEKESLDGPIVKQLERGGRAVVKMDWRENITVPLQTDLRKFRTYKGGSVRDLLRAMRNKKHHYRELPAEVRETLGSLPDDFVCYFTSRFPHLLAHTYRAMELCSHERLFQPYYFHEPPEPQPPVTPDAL
PRKD1 (PKC mu), sequence (Q15139 whole entry): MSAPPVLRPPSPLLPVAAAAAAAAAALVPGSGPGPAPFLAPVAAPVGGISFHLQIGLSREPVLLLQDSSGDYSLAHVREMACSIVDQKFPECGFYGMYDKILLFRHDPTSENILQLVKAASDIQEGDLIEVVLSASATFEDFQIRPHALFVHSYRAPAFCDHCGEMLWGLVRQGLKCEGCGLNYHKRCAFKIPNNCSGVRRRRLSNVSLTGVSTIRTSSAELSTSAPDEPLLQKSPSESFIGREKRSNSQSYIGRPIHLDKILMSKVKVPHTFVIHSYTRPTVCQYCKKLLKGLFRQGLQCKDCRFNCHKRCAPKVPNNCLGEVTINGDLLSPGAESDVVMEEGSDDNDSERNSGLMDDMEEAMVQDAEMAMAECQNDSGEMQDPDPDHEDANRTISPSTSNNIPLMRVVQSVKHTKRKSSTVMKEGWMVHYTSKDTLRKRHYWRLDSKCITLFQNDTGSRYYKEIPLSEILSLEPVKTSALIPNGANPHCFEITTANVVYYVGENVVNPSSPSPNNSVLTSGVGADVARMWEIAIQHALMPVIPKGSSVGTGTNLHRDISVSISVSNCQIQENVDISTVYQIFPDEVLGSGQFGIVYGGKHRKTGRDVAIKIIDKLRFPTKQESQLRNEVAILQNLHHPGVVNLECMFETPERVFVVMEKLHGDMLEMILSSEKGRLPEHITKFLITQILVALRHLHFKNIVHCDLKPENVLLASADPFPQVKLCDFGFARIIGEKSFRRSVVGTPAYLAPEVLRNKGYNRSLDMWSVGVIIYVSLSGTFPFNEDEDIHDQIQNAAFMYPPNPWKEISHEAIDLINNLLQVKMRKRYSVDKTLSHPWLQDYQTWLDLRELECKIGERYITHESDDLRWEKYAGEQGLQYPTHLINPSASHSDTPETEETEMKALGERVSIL
BTK, sequence (Q06187 whole entry): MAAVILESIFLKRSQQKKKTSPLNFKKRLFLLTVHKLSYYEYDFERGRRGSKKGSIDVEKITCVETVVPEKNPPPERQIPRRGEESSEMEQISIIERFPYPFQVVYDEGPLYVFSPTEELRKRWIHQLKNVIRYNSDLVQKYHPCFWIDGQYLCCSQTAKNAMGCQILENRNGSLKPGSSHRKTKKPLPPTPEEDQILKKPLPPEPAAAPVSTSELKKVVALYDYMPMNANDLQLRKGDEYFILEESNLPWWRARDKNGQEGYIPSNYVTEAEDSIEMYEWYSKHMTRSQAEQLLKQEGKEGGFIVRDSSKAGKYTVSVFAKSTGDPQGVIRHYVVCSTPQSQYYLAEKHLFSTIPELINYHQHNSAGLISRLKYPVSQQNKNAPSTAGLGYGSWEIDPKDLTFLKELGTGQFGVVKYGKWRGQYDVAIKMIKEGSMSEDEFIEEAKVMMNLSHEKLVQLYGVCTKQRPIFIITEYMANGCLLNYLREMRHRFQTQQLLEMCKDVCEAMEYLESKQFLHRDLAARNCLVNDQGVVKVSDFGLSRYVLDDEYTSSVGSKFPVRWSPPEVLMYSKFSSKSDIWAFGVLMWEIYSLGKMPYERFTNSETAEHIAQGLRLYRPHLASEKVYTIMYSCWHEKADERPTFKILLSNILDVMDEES
LCK, sequence (P06239 whole entry): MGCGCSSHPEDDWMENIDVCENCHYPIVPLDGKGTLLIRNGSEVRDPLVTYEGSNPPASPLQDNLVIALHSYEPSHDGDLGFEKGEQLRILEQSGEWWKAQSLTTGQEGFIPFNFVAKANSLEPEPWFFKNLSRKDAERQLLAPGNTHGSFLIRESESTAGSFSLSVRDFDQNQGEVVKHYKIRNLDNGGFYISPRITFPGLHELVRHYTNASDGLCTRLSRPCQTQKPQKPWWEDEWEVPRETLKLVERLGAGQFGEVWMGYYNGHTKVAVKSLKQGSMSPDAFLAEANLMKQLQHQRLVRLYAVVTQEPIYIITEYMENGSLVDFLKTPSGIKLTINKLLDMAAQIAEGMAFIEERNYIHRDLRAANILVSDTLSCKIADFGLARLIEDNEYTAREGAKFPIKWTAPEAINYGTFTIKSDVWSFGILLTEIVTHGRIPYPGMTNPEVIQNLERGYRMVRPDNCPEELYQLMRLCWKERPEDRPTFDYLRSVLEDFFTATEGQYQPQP
MARK2, sequence (Q7KZI7 whole entry): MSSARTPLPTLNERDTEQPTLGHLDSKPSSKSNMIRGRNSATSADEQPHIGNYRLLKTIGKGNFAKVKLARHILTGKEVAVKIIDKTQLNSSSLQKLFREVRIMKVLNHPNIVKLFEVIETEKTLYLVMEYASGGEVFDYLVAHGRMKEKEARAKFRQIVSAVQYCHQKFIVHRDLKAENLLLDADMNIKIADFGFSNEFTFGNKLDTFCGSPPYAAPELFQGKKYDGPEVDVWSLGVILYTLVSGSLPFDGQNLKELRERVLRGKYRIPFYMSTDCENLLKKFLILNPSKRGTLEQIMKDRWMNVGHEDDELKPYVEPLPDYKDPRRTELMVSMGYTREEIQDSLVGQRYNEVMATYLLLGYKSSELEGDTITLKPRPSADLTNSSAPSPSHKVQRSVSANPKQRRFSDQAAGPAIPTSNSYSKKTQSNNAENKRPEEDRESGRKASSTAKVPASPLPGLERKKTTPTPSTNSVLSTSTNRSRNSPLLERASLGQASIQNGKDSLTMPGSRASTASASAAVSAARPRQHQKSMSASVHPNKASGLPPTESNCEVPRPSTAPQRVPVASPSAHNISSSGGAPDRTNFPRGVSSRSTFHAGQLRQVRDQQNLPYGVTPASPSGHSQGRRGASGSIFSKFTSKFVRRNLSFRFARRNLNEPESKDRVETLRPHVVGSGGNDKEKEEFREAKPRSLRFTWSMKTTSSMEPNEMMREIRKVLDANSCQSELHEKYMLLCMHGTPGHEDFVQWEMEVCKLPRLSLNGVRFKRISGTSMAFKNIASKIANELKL
PLK1, sequence (P53350 whole entry): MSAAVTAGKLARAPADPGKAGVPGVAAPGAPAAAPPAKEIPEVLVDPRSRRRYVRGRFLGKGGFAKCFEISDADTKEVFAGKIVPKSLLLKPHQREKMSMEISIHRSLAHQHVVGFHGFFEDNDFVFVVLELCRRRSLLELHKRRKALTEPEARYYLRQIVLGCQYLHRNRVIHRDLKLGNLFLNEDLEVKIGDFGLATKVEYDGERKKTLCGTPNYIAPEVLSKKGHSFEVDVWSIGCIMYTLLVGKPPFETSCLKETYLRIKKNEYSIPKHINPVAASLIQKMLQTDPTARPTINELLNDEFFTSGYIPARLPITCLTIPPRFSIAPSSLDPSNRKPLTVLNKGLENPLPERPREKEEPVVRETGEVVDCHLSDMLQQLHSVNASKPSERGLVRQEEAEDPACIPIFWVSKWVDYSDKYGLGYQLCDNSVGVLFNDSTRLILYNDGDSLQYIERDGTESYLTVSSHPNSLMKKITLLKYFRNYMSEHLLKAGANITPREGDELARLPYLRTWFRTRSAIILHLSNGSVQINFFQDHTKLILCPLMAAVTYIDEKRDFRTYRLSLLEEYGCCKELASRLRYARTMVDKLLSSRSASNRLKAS
PAK4, sequence (O96013 whole entry): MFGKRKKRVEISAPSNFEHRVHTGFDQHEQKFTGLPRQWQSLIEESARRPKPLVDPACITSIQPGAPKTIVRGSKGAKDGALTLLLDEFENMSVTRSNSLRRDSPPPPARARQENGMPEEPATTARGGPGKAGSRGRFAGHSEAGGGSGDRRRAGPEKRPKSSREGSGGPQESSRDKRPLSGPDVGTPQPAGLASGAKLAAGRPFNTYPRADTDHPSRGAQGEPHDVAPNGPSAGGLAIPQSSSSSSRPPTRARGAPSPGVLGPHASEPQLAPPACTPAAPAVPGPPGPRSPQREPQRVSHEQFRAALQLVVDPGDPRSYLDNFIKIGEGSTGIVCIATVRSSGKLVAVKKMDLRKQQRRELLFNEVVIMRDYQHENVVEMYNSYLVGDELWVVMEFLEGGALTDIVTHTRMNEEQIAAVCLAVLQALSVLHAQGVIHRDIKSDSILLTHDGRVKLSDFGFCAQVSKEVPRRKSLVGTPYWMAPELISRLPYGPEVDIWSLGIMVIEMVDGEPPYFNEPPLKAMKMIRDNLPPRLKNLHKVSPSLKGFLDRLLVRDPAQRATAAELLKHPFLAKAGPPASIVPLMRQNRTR

IC50 ([1]; Homo sapiens): 220 nM
SMILES: CCOC(=O)CCc1c(C)n(C(=O)c2ccccc2)c2ccc(Br)cc12 [IAPD1]
inhibition of ER stress-induced XBP1 mRNA splicing [1]: inhibited
effect on IRE1α transcription level [2]: minimal impacts; also recorded: not affected

SMILES: Cc1c(CCC(=O)O)c2cc(Br)ccc2n1C(=O)c1ccccc1 [IA107]
thermal stabilization of full-length IRE1α in cell lysate [3]: concentration-dependently stabilized; also recorded: stabilized full-length IRE1α in cell lysate; also recorded: stabilized the full-length IRE1α in a concentration-dependent manner
inhibition at 5 µM (EGFR (ErbB1)): 5%
inhibition at 5 µM (PHKG2): 26%
inhibition at 5 µM (IKBKB (IKK beta)): 4%
inhibition at 5 µM (BTK): 8%
inhibition at 5 µM (PLK1): 3%
inhibition at 5 µM (PAK4): -3%
inhibition at 5 µM (LCK): 8%
inhibition at 5 µM (AKT1 (PKB alpha)): 0%
inhibition at 5 µM (PIM1): 39%
inhibition at 5 µM (EEF2K): 5%
inhibition at 5 µM (PDGFRB (PDGFR beta)): 0%
inhibition at 5 µM (PTK2 (FAK)): 4%
inhibition at 5 µM (MARK2): 8%
inhibition at 5 µM (PRKD1 (PKC mu)): 0%
inhibition at 5 µM (PRKACA (PKA)): 9%
inhibition at 5 µM (INSR): 5%
inhibition at 5 µM (CDK1/cyclin B): 4%
inhibition at 5 µM (GSG2 (Haspin)): 4%
